In brackets after ≈: the same amount, converted by molar mass. Several values for one entry are separate records, joined by “and”; a condition that tells them apart may be missing. Equal values may be shown once. Read-outs that look alike come from different tables or passages of the source. Bridge positions count the residues as written; N and C are the ends. Square brackets hold non-standard residues; d marks the D form. Peptide text beside a SMILES is read from it. * marks the point of attachment. X1 = CC[C@H](C)CCCCC(=O)*; Dab = NCC[C@H](N)C(=O)O
Key:
E. cloacae 4080 = experiment: Bacterial killing, colony formation (CFU); type: cell-based, Enterobacter cloacae; conditions: 25 µg/ml kanamycin sulfate, E. cloacae 4080
Description: The number of CFU of E. cloacae 4080 were quantified as a function of time of incubation with a 2 µM concentration of the individual peptides. In the reactions with kanamycin (Kan), 25 µg/ml of kanamycin sulfate was used. […] The initial inoculum was 10^6 CFU in LB.

K. pneumoniae = experiment: Bacterial killing, colony formation (CFU); type: cell-based, Klebsiella pneumoniae; conditions: 2 µM; Fig. 5C (K. pneumoniae 59) and data not shown
Klebsiella pneumoniae = conditions: for # strains inhibited at 16 µg/ml peptide K. p.: strains with MIC of 16 µg/ml or less / strains tested
Description: (§1) The bacterial species tested are Klebsiella pneumoniae (K. p.), Serratia marcescens (S. m.), Enterobacter cloacae (E. cl.), Escherichia coli (E. c.), and Pseudomonas aeruginosa (P. a.). MICs were determined by the microdilution assay. […] The results are the median values of at least three independent assays.
(§2) Antimicrobial activity was determined using the broth microdilution method based on the guidelines of the Clinical and Laboratory Standards Institute (CLSI) ([39]), using cation-adjusted Mueller-Hinton broth (CAMHB) as the testing medium. Reference Gram-positive and Gram-negative bacteria were tested, including both enteric and Pseudomonas aeruginosa strains. Each MIC was determined in at least three independent assays.

Enterobacter cloacae = conditions: strains with MIC of 16 µg/ml or less / strains tested
Description: as §1, §2

Serratia marcescens = conditions: for # strains inhibited at 16 µg/ml peptide S. m.: strains with MIC of 16 µg/ml or less / strains tested
Description: as §1, §2

Description for 19 Gram-negative strains: (A) Sequences of the cathelicidins, the numbers of bacterial strains killed, and hRBC lysis by the cathelicidins. […] The bacterial species tested are Klebsiella pneumoniae (K. p.), Serratia marcescens (S. m.), Enterobacter cloacae (E. cl.), Escherichia coli (E. c.), and Pseudomonas aeruginosa (P. a.). MICs were determined by the microdilution assay. […] The results are the median values of at least three independent assays.
We tested a panel of cathelicidins for inhibiting growth of 19 Gram-negative strains from the family Enterobacteriaceae and the nonfermentative bacteria. The species tested were Enterobacter cloacae ([2]), Escherichia coli ([5]), Klebsiella pneumoniae ([4]), Pseudomonas aeruginosa ([4]), and Serratia marcescens ([4]). All of the strains selected have been characterized for their antibiotic resistance profiles.
as §2
Description for E. faecalis: as §2
Description for Escherichia coli: as §1, §2
Description for Pseudomonas aeruginosa: as §1, §2
Description for S. aureus: as §2

Row | SMILES | reduction of CFU over time (E. cloacae 4080) | fold reduction in CFU, colistin-resistant K. pneumoniae (K. pneumoniae) | MIC K. pneumoniae 59 (Klebsiella pneumoniae; carbapenem-resistant, colistin-resistant clinical isolate (ST258)) | MIC (µM) K. pneumoniae 88 (Klebsiella pneumoniae; carbapenem-resistant, colistin-resistant clinical isolate (ST674), microbroth MIC (SD)) | MIC E. faecalis 29212 (E. faecalis) | MIC E. faecalis 51299 (E. faecalis) | # strains inhibited at 16 µg/ml peptide P. a. (Pseudomonas aeruginosa) | No. of strains inhibited at 16 µg/ml/total no. of strains (19 Gram-negative strains) | No. of strains inhibited at 16 µg/ml/total no. of strains (19 Gram-negative strains; 19 Gram-negative strains, MIC of 16 µg/ml or less) | # strains inhibited at 16 µg/ml peptide K. p. (Klebsiella pneumoniae) | # strains inhibited at 16 µg/ml peptide E. cl. (Enterobacter cloacae) | concentration usually required to inhibit growth of S. marcescens strains (Serratia marcescens; S. marcescens strains) | # strains inhibited at 16 µg/ml peptide S. m. (Serratia marcescens) | # strains inhibited at 16 µg/ml peptide E. c. (Escherichia coli) | MIC S. aureus 25923 (S. aureus) | MIC S. aureus 29213 (S. aureus)
1 | NC[C@H]1O[C@H](O[C@H]2[C@H](O)[C@@H](O[C@H]3O[C@H](CO)[C@@H](O)[C@H](N)[C@H]3O)[C@H](N)C[C@@H]2N)[C@H](O)[C@@H](O)[C@@H]1O [kanamycin] | only after a 2-h incubation |  |  |  |  |  |  |  |  |  |  |  |  |  |  | 
2 | CC[C@H](C)CCCCC(=O)N[C@@H](CCN)C(=O)N[C@H](C(=O)N[C@@H](CCN)C(=O)N[C@H]1CCNC(=O)[C@H]([C@@H](C)O)NC(=O)[C@H](CCN)NC(=O)[C@H](CCN)NC(=O)[C@H](CC(C)C)NC(=O)[C@@H](CC(C)C)NC(=O)[C@H](CCN)NC1=O)[C@@H](C)O [Colistin, colistin] (X1-[Dab]T[Dab][Dab][Dab][dL]L[Dab][Dab]T; lactam 4-C (inferred); N-terminus assumed) |  | 1.4 fold | 6.4 µM (≈ 7.48 µg/mL) | 6.4 µM (≈ 7.48 µg/mL) |  |  |  |  |  |  |  |  |  |  |  | 
3 | CC[C@H](C)[C@H](NC(=O)[C@@H](NC(=O)[C@@H]1CCCN1C(=O)[C@H](CO)NC(=O)[C@H](CC(C)C)NC(=O)[C@H](CCCCN)NC(=O)[C@H](CCCCN)NC(=O)[C@H](Cc1ccccc1)NC(=O)[C@H](CC(C)C)NC(=O)[C@H](CCCCN)NC(=O)[C@H](CCCCN)NC(=O)[C@H](Cc1ccccc1)NC(=O)[C@H](CCCCN)NC(=O)[C@H](CCCCN)NC(=O)[C@H](CCCNC(=N)N)NC(=O)[C@H](Cc1ccccc1)NC(=O)[C@H](CCCNC(=N)N)NC(=O)[C@H](CCCCN)NC(=O)[C@H](Cc1ccccc1)NC(=O)[C@H](CCCNC(=N)N)NC(=O)CN)C(C)C)C(=O)N1CCC[C@H]1C(=O)N[C@@H](CC(C)C)C(=O)N[C@@H](CC(C)C)C(=O)N[C@@H](Cc1c[nH]cn1)C(=O)N[C@@H](CC(C)C)C(=O)NCC(=O)O [BMAP-27] (H-GRFKRFRKKFKKLFKKLSPVIPLLHLG-OH; N-terminus and C-terminus assumed) |  |  |  |  | >32 µg/mL | >32 µg/mL | 4/4 | 19 and 19/19 | ≥ 16 | 4/4 | 2/2 | 8 µg/mL | 3/3 | 6/6 | 16 µg/mL (≈ 4.87 µM) | 16 µg/mL (≈ 4.87 µM)
4 | CC[C@H](C)[C@H](NC(=O)[C@H](CCCCN)NC(=O)[C@H](C)NC(=O)[C@H](CCCCN)NC(=O)[C@H](CO)NC(=O)[C@H](CCCCN)NC(=O)[C@H](CCCNC(=N)N)NC(=O)[C@H](Cc1ccccc1)NC(=O)[C@H](Cc1ccccc1)NC(=O)[C@H](C)NC(=O)CNC(=O)[C@H](CC(C)C)NC(=O)[C@@H](N)CC(C)C)C(=O)NCC(=O)N[C@@H](CCCCN)C(=O)N[C@@H](C)C(=O)N[C@@H](Cc1ccccc1)C(=O)N[C@@H](CCCCN)C(=O)N[C@@H](CCCNC(=N)N)C(=O)N[C@H](C(=O)N[C@H](C(=O)N[C@@H](CCC(N)=O)C(=O)N[C@@H](CCCNC(=N)N)C(=O)N[C@H](C(=O)N[C@@H](CCCCN)C(=O)N[C@@H](C)C(=O)N[C@@H](Cc1ccccc1)C(=O)N[C@@H](CC(C)C)C(=O)N[C@@H](CCCNC(=N)N)C(=O)O)[C@@H](C)CC)C(C)C)[C@@H](C)CC [LL-29V2] (H-LLGAFFRKSKAKIGKAFKRIVQRIKAFLR-OH) |  |  |  |  |  |  | 1/4 | 4/19 |  | 4/4 | 1/2 |  | 1/3 | 4/6 |  | 
5 | CC[C@H](C)[C@H](NC(=O)[C@@H](NC(=O)[C@@H]1CCCN1C(=O)[C@H](CO)NC(=O)[C@H](CC(C)C)NC(=O)[C@H](CCCCN)NC(=O)[C@H](CCCCN)NC(=O)[C@H](Cc1ccccc1)NC(=O)[C@H](CC(C)C)NC(=O)[C@H](CCCCN)NC(=O)[C@H](CCCCN)NC(=O)[C@H](Cc1ccccc1)NC(=O)[C@H](CCCCN)NC(=O)[C@H](CCCCN)NC(=O)[C@H](CCCNC(=N)N)NC(=O)[C@H](CC(C)C)NC(=O)[C@H](CCCNC(=N)N)NC(=O)[C@H](CCCCN)NC(=O)[C@H](Cc1ccccc1)NC(=O)[C@H](CCCNC(=N)N)NC(=O)CN)C(C)C)C(=O)N1CCC[C@H]1C(=O)N[C@@H](CC(C)C)C(=O)N[C@@H](CC(C)C)C(=O)N[C@@H](Cc1c[nH]cn1)C(=O)N[C@@H](CC(C)C)C(=O)NCC(=O)O [BMAP-27A] (H-GRFKRLRKKFKKLFKKLSPVIPLLHLG-OH; N-terminus and C-terminus assumed) |  |  |  |  | >32 µg/mL | >32 µg/mL | 4/4 | 19/19 |  | 4/4 | 2/2 |  | 3/3 | 6/6 | 16 µg/mL (≈ 4.92 µM) | 16 µg/mL (≈ 4.92 µM)
6 | CC[C@H](C)[C@H](NC(=O)[C@H](CCCCN)NC(=O)[C@H](CCC(=O)O)NC(=O)[C@H](CCCCN)NC(=O)[C@H](CO)NC(=O)[C@H](CCCCN)NC(=O)[C@H](CCCNC(=N)N)NC(=O)[C@H](Cc1ccccc1)NC(=O)[C@H](Cc1ccccc1)NC(=O)[C@H](CC(=O)O)NC(=O)CNC(=O)[C@H](CC(C)C)NC(=O)[C@@H](N)CC(C)C)C(=O)NCC(=O)N[C@@H](CCCCN)C(=O)N[C@@H](CCC(=O)O)C(=O)N[C@@H](Cc1ccccc1)C(=O)N[C@@H](CCCCN)C(=O)N[C@@H](CCCNC(=N)N)C(=O)N[C@H](C(=O)N[C@H](C(=O)N[C@@H](CCC(N)=O)C(=O)N[C@@H](CCCNC(=N)N)C(=O)N[C@H](C(=O)N[C@@H](CCCCN)C(=O)N[C@@H](CC(=O)O)C(=O)N[C@@H](Cc1ccccc1)C(=O)N[C@@H](CC(C)C)C(=O)N[C@@H](CCCNC(=N)N)C(=O)O)[C@@H](C)CC)C(C)C)[C@@H](C)CC [LL-29] (H-LLGDFFRKSKEKIGKEFKRIVQRIKDFLR-OH; N-terminus and C-terminus assumed) |  |  |  |  |  |  | 0/4 | 4/19 |  | 0/4 | 1/2 |  | 0/3 | 2/6 |  | 
7 | CC[C@H](C)[C@H](NC(=O)[C@H](CCCCN)NC(=O)[C@H](CCC(=O)O)NC(=O)[C@H](CCCCN)NC(=O)[C@H](CO)NC(=O)[C@H](CCCCN)NC(=O)[C@H](CCCNC(=N)N)NC(=O)[C@H](Cc1ccccc1)NC(=O)[C@H](Cc1ccccc1)NC(=O)[C@H](C)NC(=O)CNC(=O)[C@H](CC(C)C)NC(=O)[C@@H](N)CC(C)C)C(=O)NCC(=O)N[C@@H](CCCCN)C(=O)N[C@@H](C)C(=O)N[C@@H](Cc1ccccc1)C(=O)N[C@@H](CCCCN)C(=O)N[C@@H](CCCNC(=N)N)C(=O)N[C@H](C(=O)N[C@H](C(=O)N[C@@H](CCC(N)=O)C(=O)N[C@@H](CCCNC(=N)N)C(=O)N[C@H](C(=O)N[C@@H](CCCCN)C(=O)N[C@@H](CC(=O)O)C(=O)N[C@@H](Cc1ccccc1)C(=O)N[C@@H](CC(C)C)C(=O)N[C@@H](CCCNC(=N)N)C(=O)O)[C@@H](C)CC)C(C)C)[C@@H](C)CC [LL-29V] (H-LLGAFFRKSKEKIGKAFKRIVQRIKDFLR-OH) |  |  |  |  |  |  | 0/4 | 11/19 |  | 0/4 | 1/2 |  | 0/3 | 3/6 |  | 
8 | CC[C@H](C)[C@H](NC(=O)[C@@H](NC(=O)[C@@H]1CCCN1C(=O)[C@H](CO)NC(=O)[C@H](CC(C)C)NC(=O)[C@H](CCCCN)NC(=O)[C@H](CCCCN)NC(=O)[C@H](C)NC(=O)[C@H](CC(C)C)NC(=O)[C@H](CCCCN)NC(=O)[C@H](CCCCN)NC(=O)[C@H](CC(C)C)NC(=O)[C@H](CCCCN)NC(=O)[C@H](CCCCN)NC(=O)[C@H](CCCNC(=N)N)NC(=O)[C@H](CC(C)C)NC(=O)[C@H](CCCNC(=N)N)NC(=O)[C@H](CCCCN)NC(=O)[C@H](C)NC(=O)[C@H](CCCNC(=N)N)NC(=O)CN)C(C)C)C(=O)N1CCC[C@H]1C(=O)N[C@@H](CC(C)C)C(=O)N[C@@H](CC(C)C)C(=O)N[C@@H](Cc1c[nH]cn1)C(=O)N[C@@H](CC(C)C)C(=O)NCC(=O)O [BMAP-27C] (H-GRAKRLRKKLKKLAKKLSPVIPLLHLG-OH) |  |  |  |  | >32 µg/mL | >32 µg/mL | 4/4 | 17/19 |  | 4/4 | 2/2 |  | 2/3 | 6/6 | >32 µg/mL | 32 µg/mL (≈ 10.4 µM)

From PMC5030359, “Cathelicidin Antimicrobial Peptides with Reduced Activation of Toll-Like Receptor Signaling Have Potent Bactericidal Activity against Colistin-Resistant Bacteria” (mBio, 2016)
